Legend:
Assay type in all cases: cell-based
[1] = test system: Acinetobacter baumanii/haemolyticus: Multidrug-resistant clinical isolate (AB-3167); assay: MIC determination (CLSI), strain AB-3167; details: unit assumed
Outline: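 Using the multidrug-resistant Acinetobacter baumanii/haemolyticus clinical isolate AB-3167, minimum inhibitory concentrations were determined following CLSI dilution susceptibility standards.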

[2] = test system: Escherichia coli EC-1: VOGEL, mouse virulent; assay: MIC determination (CLSI), strain EC-1; details: Escherichia coli EC-1, VOGEL, mouse virulent; unit assumed
Outline: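 The mouse-virulent VOGEL isolate of E. coli, EC-1, served as test organism. Minimum inhibitory concentration was measured by CLSI dilution methodology (M7-A7; M100-S18 standards).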

[3] = test system: Pseudomonas aeruginosa UI-18: Wild-type (PA-7); assay: MIC determination (CLSI), strain PA-7; details: Pseudomonas aeruginosa UI-18, wild-type; unit assumed
Outline: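 Strain tested was P. aeruginosa UI-18, a wild-type isolate labelled PA-7. Minimum inhibitory concentrations followed CLSI dilution methodology for aerobically growing bacteria (M7-A7, M100-S18).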

SMILES | AB-3167 (MIC) [1] [µg/mL] | EC-1 (MIC) [2] [µg/mL] | PA-7 (MIC) [3] [µg/mL]
CC(CCn1ccc(OCCC2CCCC2)cc1=O)(C(=O)NO)S(C)(=O)=O (stereo not drawn) [Example 68-S, 4-[4-(2-cyclopentylethoxy)-2-oxopyridin-1(2H)-yl]-N-hydroxy-2-methyl-2-(methylsulfonyl)butanamide] | 64 | 16 | 32
CC(CCn1ccc(C2CCCCC2)cc1=O)(C(=O)NO)S(C)(=O)=O (stereo not drawn) [Example 53, 4-(4-Cyclohexyl-2-oxopyridin-1(2H)-yl)-N-hydroxy-2-methyl-2-(methylsulfonyl)butanamide] | > 64 | 16 | 8
C[C@@](CCn1ccc(-c2ccc([C@H]3C[C@@H](O)C3)cc2)cc1=O)(C(=O)NO)S(C)(=O)=O [Example 5, (2R)-N-hydroxy-4-{4-[4-(cis-3-hydroxycyclobutyl)phenyl]-2-oxopyridin-1(2H)-yl}-2-methyl-2-(methylsulfonyl)butanamide] | > 64 | 4 | 2
C[C@@](CCn1ccc(N2CC(c3ccccc3)C2)cc1=O)(C(=O)NO)S(C)(=O)=O [Example 64, (2R)-N-Hydroxy-2-methyl-2-(methylsulfonyl)-4-[2-oxo-4-(3-phenylazetidin-1-yl)pyridin-1(2H)-yl]butanamide] | > 64 | 8 | 8
CC(CCn1ccc(-c2cc3ccccc3o2)cc1=O)(C(=O)NO)S(C)(=O)=O (racemic) [Example 33, (+/−)-4-[4-(1-benzofuran-2-yl)-2-oxopyridin-1(2H)-yl]-N-hydroxy-2-methyl-2-(methylsulfonyl)butanamide] | > 64 | 1 | 2
C[C@@](CCn1ccc(C2=CCN(c3ncccn3)CC2)cc1=O)(C(=O)NO)S(C)(=O)=O [Example 67, (2R)-N-Hydroxy-2-methyl-2-(methylsulfonyl)-4-(2-oxo-1′-pyrimidin-2-yl-1′,2′,3′,6′-tetrahydro-4,4′-bipyridin-1(2H)-yl)butanamide] | > 64 | 8 | 8
C[C@@](CCn1ccc(-c2ccccc2)c(F)c1=O)(C(=O)NO)S(C)(=O)=O [Example 55, (2R)-4-(3-fluoro-2-oxo-4-phenylpyridin-1(2H)-yl)-N-hydroxy-2-methyl-2-(methylsulfonyl)butanamide] | > 64 | 8 | 1
C[C@@](CCn1ccc(-c2ccc(CC3CC(O)C3)cc2)cc1=O)(C(=O)NO)S(C)(=O)=O (stereo partly drawn) [Example 68-M, (2R)-N-hydroxy-4-[4-{4-[(3-hydroxycyclobutyl)methyl]phenyl}-2-oxopyridin-1(2H)-yl]-2-methyl-2-(methylsulfonyl)butanamide] | > 64 | 0.5 | 2
C[C@@](CCn1ccc(-c2ccc(OC[C@H]3CC[C@H](O)CC3)cc2F)cc1=O)(C(=O)NO)S(C)(=O)=O [Example 10, (2R)-4-[4-{2-fluoro-4-[(trans-4-hydroxycyclohexyl)methoxy]phenyl}-2-oxopyridin-1(2H)-yl]-N-hydroxy-2-methyl-2-(methylsulfonyl) butanamide] | > 64 | 0.25 | 1
Cc1c(-c2ccccc2)ccn(CCC(C)(C(=O)NO)S(C)(=O)=O)c1=O (stereo not drawn) [Example 52, N-Hydroxy-2-methyl-4-(3-methyl-2-oxo-4-phenylpyridin-1(2H)-yl)-2-(methylsulfonyl)butanamide] | > 64 | 2 | 4
C[C@@](CCn1ccc(-c2ccc3ccccc3c2)cc1=O)(C(=O)NO)S(C)(=O)=O [Example 68-A, (2R)-N-hydroxy-2-methyl-2-(methylsulfonyl)-4-[4-(2-naphthyl)-2-oxopyridin-1(2H)-yl]butanamide] | > 64 | 0.06 | 0.5
CCS(=O)(=O)C(C)(CCn1ccc(-c2ccccc2)cc1=O)C(=O)NO (stereo not drawn) [Example 57, 2-(ethylsulfonyl)-N-hydroxy-2-methyl-4-(2-oxo-4-phenylpyridin-1(2H)-yl)butanamide] | 16 | 8 | 64
C[C@@](CCn1ccc(-c2ccc(OCCCC#N)cc2)cc1=O)(C(=O)NO)S(C)(=O)=O [Example 10-C, (2R)-4-{4-[4-(3-cyanopropoxy)phenyl]-2-oxopyridin-1(2H)-yl}-N-hydroxy-2-methyl-2-(methylsulfonyl)butanamide] | > 64 | 0.5 | 1
Cc1c(O)ccc(-c2ccn(CC[C@](C)(C(=O)NO)S(C)(=O)=O)c(=O)c2)c1F [Example 12, (2R)-4-[4-(2-fluoro-4-hydroxy-3-methylphenyl)-2-oxopyridin-1(2H)-yl]-N-hydroxy-2-methyl-2-(methylsulfonyl)butanamide] | > 64 | 16 | 16
C[C@@](CCn1ccc(-c2ccc(-c3ncccn3)cc2)cc1=O)(C(=O)NO)S(C)(=O)=O [Example 39, (2R)-N-hydroxy-2-methyl-2-(methylsulfonyl)-4-[2-oxo-4-(4-pyrimidin-2-ylphenyl)pyridin-1(2H)-yl]butanamide] | > 64 | 0.5 | 2
